According to article PMC8497791 (Frontiers in Pharmacology, 2021):
pKd: −log10 of the molar value.

Experiments:
[1] = parameters: method as in Mok et al., 2017; conditions: metabolite of osimertinib; ref Mok et al., 2017; cited from earlier work
[2] = target: T1, ABCB1 (Homo sapiens, UniProt P08183); assay: Bidirectional transport across ABCB1-MDCK monolayers; assay type: in vitro ADME; conditions: for ABCB1 transporter substrate assessment: criterion ER >2, ABCB1-MDCK vs MDCK
T1 construct: expressed in transfected cells; host or cells: MDCK (canine kidney) cells transduced with lentivirus from pLVX-CMV-ABCB1
T1 sequence (P08183 whole entry): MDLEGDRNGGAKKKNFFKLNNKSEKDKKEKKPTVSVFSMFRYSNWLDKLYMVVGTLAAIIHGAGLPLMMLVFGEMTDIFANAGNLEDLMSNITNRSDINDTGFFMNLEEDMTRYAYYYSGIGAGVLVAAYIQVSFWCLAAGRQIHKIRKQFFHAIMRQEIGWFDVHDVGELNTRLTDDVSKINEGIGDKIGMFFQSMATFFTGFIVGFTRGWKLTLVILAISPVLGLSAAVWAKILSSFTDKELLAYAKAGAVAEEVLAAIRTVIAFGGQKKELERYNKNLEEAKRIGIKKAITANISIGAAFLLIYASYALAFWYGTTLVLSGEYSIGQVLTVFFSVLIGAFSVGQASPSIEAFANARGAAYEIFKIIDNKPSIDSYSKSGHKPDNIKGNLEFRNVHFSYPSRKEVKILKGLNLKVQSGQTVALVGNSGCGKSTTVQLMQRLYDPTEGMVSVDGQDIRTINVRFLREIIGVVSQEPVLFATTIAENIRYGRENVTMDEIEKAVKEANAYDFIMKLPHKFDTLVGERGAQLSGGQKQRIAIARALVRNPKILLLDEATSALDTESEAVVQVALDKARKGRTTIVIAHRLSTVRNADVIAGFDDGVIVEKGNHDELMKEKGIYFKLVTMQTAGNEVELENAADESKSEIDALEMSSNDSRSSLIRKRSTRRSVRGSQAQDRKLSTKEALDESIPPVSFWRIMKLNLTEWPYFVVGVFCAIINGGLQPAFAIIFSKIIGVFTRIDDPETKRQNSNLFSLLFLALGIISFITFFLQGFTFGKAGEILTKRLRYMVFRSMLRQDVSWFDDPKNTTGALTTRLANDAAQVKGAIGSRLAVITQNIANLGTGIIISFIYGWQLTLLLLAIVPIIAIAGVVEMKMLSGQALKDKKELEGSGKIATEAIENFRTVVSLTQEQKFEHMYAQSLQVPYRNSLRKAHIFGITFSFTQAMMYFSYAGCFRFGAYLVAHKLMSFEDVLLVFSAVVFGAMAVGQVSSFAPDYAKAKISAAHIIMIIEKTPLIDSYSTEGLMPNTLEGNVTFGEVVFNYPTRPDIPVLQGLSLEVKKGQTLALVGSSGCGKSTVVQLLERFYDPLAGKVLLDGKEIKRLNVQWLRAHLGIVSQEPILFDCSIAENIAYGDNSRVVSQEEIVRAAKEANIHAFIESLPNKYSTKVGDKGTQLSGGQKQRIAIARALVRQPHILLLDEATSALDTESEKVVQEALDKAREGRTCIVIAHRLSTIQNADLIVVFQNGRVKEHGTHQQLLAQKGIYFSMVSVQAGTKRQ
Experimental: (§1) To establish an MDCK transgenic cell line that can stably express human ABCB1 and BCRP and to identify whether it is suitable for drug delivery experiments, lentivirus shuttle plasmids pLVX-CMV-ABCB1 and pLVX-CMV-BCRP and their auxiliary packaging plasmids PSPAX2 and PMD2G, were extracted with high purity and free of endotoxin, respectively. 293T cells were transfected with Lipofectamine™ 3000 transfection reagent, and the medium was changed 6 h after transfection. After culturing for 24 and 48 h, the cell supernatants, rich in lentivirus particles, were collected and concentrated by ultracentrifugation. Before lentivirus transfection for 18–24 h, adherent MDCK cells were spread on 24-well plates at a density of 1 × 10^5/well. The number of cells transfected with lentivirus was approximately 2 × 10^5/well. The next day, the original medium was replaced with 2 ml of fresh medium containing 6 μg/ml polybrene, and then an appropriate amount of virus suspension; the plates were incubated at 37°C. After 4 h, 2 ml of fresh medium was added to dilute polybrene. The cells were cultured for another 24 h, and the medium containing virus was replaced with fresh medium. After 3–4 days of transfection, puromycin was added to screen the cell lines stably expressing ABCB1 and BCRP.
(§2) MDCK, ABCB1-MDCK, and BCRP-MDCK cells were inoculated in Tmur75 culture bottles with high-glucose DMEM. The cells were counted using a cell counter, the cell density was adjusted to 2.0 × 10^5 cells/ml, and the cells were inoculated in 12-well transwell plates [1.13 cm^2 insert area, 0.4 µm pore size (Corning Life Sciences, New York, NY, United States)]. Thereafter, 0.5 ml of cell suspension was added to the villous surface of each hole (AP side) and 1.5 ml of blank culture medium was added to the basal surface (BL side). After 24 h of culture in the incubator, the fresh culture medium was changed on both AP and BL sides, and the medium was changed every day for 3–5 days. In this experiment, transmembrane resistance was used to evaluate the compactness and integrity of the cell model. When the transmembrane resistance (TEER) is greater than 300 Ω cm^2, the cell monolayer is considered dense and intact. The higher the TEER value, the tighter the monolayer connection. The TEER of monolayer cells was calculated using the following formula: TEER = (R - Rb) × A; where, R is the resistance of the well inoculated with cells, Rb is the blank well without cell inoculation, and A is the membrane area of the polycarbonate membrane.
(§3) Before the transport experiment, the cell monolayer was washed with blank HBSS solution at 37°C three times, and then placed in a CO2 incubator and balanced with HBSS solution for 30 min at 37°C. The transport of the AP→BL side: 0.5 ml of the test solution was added to the AP side as the supply pool, whereas 1.5 ml of blank HBSS solution was added to the BL side as the receiving pool. Before sampling, 0.1 ml of the sample was collected from the BL side in the centrifuge tube, and after sampling, 0.1 ml of blank HBSS, transport sample, was added to the BL side to precipitate protein with methanol, and used for liquid chromatography-tandem mass spectrometry (LC-MS) detection. The transport of the BL→AP side: 1.5 ml of the test solution was added to the BL side as the supply pool, whereas 0.5 ml of blank HBSS solution was added to the AP side as the receiving pool. First, 0.1 ml of the sample was collected on the AP side in the centrifuge tube, and then 0.1 ml of HBSS was added to the AP side after sampling. A transport sample was added to the AP side to precipitate the protein with methanol and used for LC-MS detection.
(§4) The protein was precipitated with methanol in 0.1 ml of blank HBSS, transport sample, and used for LC-MS detection. Drug absorption was determined by LC-MS/MS.

[3] = test system: MDCK cell monolayers; assay: Bidirectional transport across MDCK monolayers; assay type: in vitro ADME, canine
Experimental: as §2, §3, §4

[4] = mouse, in vivo, po, 25 mg/kg
Experimental: (§5) The blood and brain tissues of mice with brain metastases were sampled at 0.5, 1, 2, 4, 8, and 24 h post dosing.
(§6) Chromatographic column:Thermo Hypersil C18 100 × 2.1 mm, 3 μm; Flow rate: 0.4 ml/min; Water phase: 0.1% formic acid aqueous solution; Organic phase: 0.1% formic acid/acetonitrile; Needle wash: methanol; Column oven temperature: 40°C; Autosampler temperature: 10.0°C; Automatic sampling Injection volume of the detector: 5.00 µl.
(§7) Dilute the 2.00 mg/ml stock solution to obtain standard curve solutions with concentrations of 500, 200, 50, 2, 1, and 0.5 ng/ml.
(§8) Dissolve the serum sample at room temperature, take 50 μl, add 150 μl methanol, vortex for 5 min, place in a centrifuge at 15,000 rpm for 10 min, take the supernatant for analysis. Weigh the tissue sample, add 2 ml of methanol, grind for 5 min, vortex and mix for 5 min, place it in a centrifuge at 15,000 rpm for 10 min, and take the supernatant for analysis.

[5] = target: T2, BCRP (Homo sapiens, UniProt Q9UNQ0); assay: Bidirectional transport across BCRP-MDCK monolayers; assay type: in vitro ADME; conditions: for BCRP transporter substrate assessment: criterion ER >2, BCRP-MDCK vs MDCK
T2 construct: expressed in transfected cells; host or cells: MDCK (canine kidney) cells transduced with lentivirus from pLVX-CMV-BCRP
T2 sequence (Q9UNQ0 1-655): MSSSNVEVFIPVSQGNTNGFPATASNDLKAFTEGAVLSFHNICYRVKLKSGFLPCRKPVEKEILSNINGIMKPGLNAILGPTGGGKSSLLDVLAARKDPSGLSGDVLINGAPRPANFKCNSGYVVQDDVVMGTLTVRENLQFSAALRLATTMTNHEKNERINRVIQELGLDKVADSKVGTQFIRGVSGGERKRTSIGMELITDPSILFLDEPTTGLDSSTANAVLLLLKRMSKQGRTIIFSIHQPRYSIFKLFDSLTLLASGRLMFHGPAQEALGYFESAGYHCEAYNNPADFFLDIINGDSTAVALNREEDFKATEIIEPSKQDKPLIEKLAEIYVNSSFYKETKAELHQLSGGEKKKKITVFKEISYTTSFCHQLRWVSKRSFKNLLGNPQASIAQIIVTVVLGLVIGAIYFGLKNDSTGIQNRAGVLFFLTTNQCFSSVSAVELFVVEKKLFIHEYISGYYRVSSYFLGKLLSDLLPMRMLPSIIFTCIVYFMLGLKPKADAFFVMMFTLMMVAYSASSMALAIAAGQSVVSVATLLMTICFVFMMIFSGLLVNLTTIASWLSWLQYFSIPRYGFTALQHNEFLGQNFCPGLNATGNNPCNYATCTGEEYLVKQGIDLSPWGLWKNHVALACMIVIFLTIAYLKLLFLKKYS
Experimental: as §1, §2, §3, §4

[6] = test system: EGFR 19del mutant lung adenocarcinoma and brain metastases; assay: Clinical case study, EGFR 19del lung adenocarcinoma with brain metastases; assay type: in vivo, human; conditions: one patient
Experimental: Herein, we present details of a clinical case study. In this case, brain metastases were recorded at the beginning of the study, and almonertinib was administered for several weeks to allow magnetic resonance imaging of the brain to observe the progression of the disease. Written informed consent was obtained from the patient. The work has been carried out in accordance with The Code of Ethics of the World Medical Association (Declaration of Helsinki).

[7] = test system: PC9-LUC brain metastatic tumor; assay: Mouse brain metastasis xenograft (intracranial PC9-LUC); assay type: in vivo, BALB/c nude mice; conditions: for growth of intracranial tumors (bioluminescence) / body weight of mice: 10 and 25 mg/kg once daily
Experimental: The brain metastasis model was established via intracranial injection of tumor cells into 6–8-week-old SPF female BALB/c nude mice. The tumor seeding process, which is an aseptic operation, was carried out on an ultra-clean bench. The tumor cells used in this experiment were PC9-LUC cells, and the concentration of the cell suspension was 1 × 10^8/ml. Pentobarbital sodium at 50 mg/kg body weight was administered via intraperitoneal injection. The top of the mouse skull was cut along the center of the skull from the ears to the eyes. An area of about 1–2 cm of the skull was then wiped repeatedly with a cotton swab to remove the fascia and expose the cranial sutures. Holes were then drilled 1 mm below the coronal suture of the skull and 2–2.5 mm from the sagittal suture while keeping the mouse head level. The cranial drill was inserted vertically and the drill was operated at low speed to avoid brain damage. Each mouse was then placed on the brain stereotaxic device, the tip of the syringe needle was aligned with the hole on the skull, and 3 μl of cell suspension (3 × 10^5 cells) was injected via a needle at a depth of 3 mm from the skull. The needle was maintained for 1–2 min following cell injection and then withdrawn. A cotton swab was used to compress the wound and medical adhesive was used to bond the skin wounds. Mice were then placed on a heating blanket and then returned to the animal room for recovery and ongoing nurture. Bioluminescent (BLI) signals were measured weekly using the IVIS Xenogen Imaging system (FX-PRO, United States) to monitor tumor growth. […] The BLI signal was measured once a week and the body weight of the mice was recorded.

[8] = Bidirectional transport across MDCK monolayers; assay type: in vitro ADME, canine; conditions: dog, read-out: efflux ratio (ER)
Experimental: as §2, §3, §4

[9] = target: EGFR T790M mutant protein (Homo sapiens, UniProt P00533, T790M); assay: biochemical
Chain of EGFR T790M mutant protein (P00533 25-1210 T790M): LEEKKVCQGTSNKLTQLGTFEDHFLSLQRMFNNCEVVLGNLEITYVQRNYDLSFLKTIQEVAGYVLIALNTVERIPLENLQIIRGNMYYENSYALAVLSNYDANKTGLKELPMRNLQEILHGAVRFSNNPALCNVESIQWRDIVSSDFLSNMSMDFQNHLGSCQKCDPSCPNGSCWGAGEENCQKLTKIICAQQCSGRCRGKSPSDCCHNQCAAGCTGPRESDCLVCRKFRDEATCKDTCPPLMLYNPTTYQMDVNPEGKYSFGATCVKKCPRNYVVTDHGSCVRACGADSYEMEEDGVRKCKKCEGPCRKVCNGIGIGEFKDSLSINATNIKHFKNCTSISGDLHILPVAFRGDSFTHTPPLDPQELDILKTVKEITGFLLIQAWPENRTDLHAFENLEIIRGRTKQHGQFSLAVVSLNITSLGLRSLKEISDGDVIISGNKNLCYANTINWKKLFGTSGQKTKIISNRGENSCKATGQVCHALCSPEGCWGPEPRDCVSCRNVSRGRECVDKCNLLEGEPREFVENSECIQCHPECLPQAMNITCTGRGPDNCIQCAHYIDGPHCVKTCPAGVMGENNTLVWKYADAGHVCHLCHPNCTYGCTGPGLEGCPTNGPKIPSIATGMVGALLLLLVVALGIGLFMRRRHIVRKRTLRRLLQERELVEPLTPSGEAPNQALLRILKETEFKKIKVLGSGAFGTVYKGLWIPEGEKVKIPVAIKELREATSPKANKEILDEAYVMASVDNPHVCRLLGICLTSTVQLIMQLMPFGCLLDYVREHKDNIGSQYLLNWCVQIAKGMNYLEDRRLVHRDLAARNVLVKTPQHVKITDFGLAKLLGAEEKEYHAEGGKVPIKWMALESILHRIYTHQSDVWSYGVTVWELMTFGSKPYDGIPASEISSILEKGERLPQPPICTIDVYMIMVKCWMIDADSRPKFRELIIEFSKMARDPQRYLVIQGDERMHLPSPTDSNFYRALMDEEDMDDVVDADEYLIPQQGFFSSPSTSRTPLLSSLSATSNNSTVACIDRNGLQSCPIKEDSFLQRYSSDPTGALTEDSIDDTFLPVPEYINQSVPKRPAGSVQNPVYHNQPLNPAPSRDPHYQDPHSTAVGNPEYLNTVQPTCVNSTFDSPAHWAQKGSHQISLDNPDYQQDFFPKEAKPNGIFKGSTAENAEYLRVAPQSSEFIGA
Experimental: First, according to the standard procedure, a COOH sensor chip was installed on the Open SPR instrument. The buffer was run at the maximum flow rate and exhaust bubbles after reaching the signal baseline. […] The buffer flow rate was then depressed to 20 µl/min and a sample of 200 µl EDC/NHS (1:1) solution was run for 4 min. Then, the injection instrument of the 200 µl ligand was operated for 4 min. Diluted with activation buffer, Once the ligand-chip interaction was completed, the upper sample mouth was rinsed with buffer and emptied by air. Sample 200 µl Blocking (20 µl/min,4 min) solution, buffer (PBS) rinse the sample ring and empty it by air. The baseline was then observed for 5 min to ensure stability. Finally, different concentrations of analyte were injected separately on the surface of the ligand chip (the concentration is detailed in the experimental results), and the analyte was sampled at 20 µl/min. The binding time of the analyte to the ligand was 240 s and the natural dissociation occurred at 480 s. The 200 µl sample flowed through the chip for 240 s at a constant flow rate of 20 µl/min in each cycle.
The combined compounds can be dissociated from the coating surface by acid and alkali. […] Finally, the kinetic parameters of the binding reactions were calculated and analyzed using Trace Drawer software (Ridgeview Instruments AB, Sweden).

[10] = test system: PC9-LUC spinal cord metastases; assay: Mouse spinal cord metastasis model (PC9-LUC); assay type: in vivo, nude mice; conditions: for biofluorescence signal of intracranial and spinal cord tumors: vs control
Experimental: The BLI signal was measured once a week, and the body weight of the mice was recorded.
For the spinal cord metastasis model, PC9-LUC cells were injected into the brain ventricles of nude mice, and the mice were placed in an SPF environment. […] These mice were then randomly divided into five groups (five in each group) to receive various treatments. After 16 days of modeling, bioluminescence imaging was used to assess the growth and metastasis of PC9-LUC cells every week.

[11] = Mouse pharmacokinetic study, plasma and brain by LC-MS
Experimental: as §5, §6, §7, §8

[12] = test system: EGFR-mutated NSCLC brain metastases; parameters: method as in Liu et al., 2020; conditions: patients, ref Liu et al., 2020; cited from earlier work
[13] = parameters: method as in Mok et al., 2017; conditions: AURA3; ref Mok et al., 2017; cited from earlier work
[14] = female, BALB/c nude, mouse, brain, po, 25 mg/kg
[15] = female, BALB/c nude, mouse, plasma, po, 25 mg/kg
[16] = brain metastasis model, 25 mg/kg once daily

C=CC(=O)Nc1cc(Nc2nccc(-c3c[nH]c4ccccc34)n2)c(OC)cc1N(C)CCN(C)C [AZ5104]
concentration of active metabolite in the human body [1]: ~10%

C=CC(=O)Nc1cc(Nc2nccc(-c3cn(C4CC4)c4ccccc34)n2)c(OC)cc1N(C)CCNC [HAS-719]
efflux ratio (ER) ([2]; ABCB1-MDCK, 1 μM): 29.83 | efflux ratio (ER) ([2]; ABCB1-MDCK, 10 μM): 12.26 | efflux ratio (ER) ([2]; ABCB1-MDCK, 20 μM): 5.5 | ABCB1 transporter substrate assessment [2]: ABCB1 and BCRP transporter substrates | efflux ratio (ER) ([3]; 1 μM): 2.81 | efflux ratio (ER) ([3]; 10 μM): 1.61 | efflux ratio (ER) ([3]; 20 μM): 1.62 | Tissue/plasma AUC ratio [4]: 0.21 | efflux ratio (ER) ([5]; BCRP-MDCK, 1 μM): 11.59 | efflux ratio (ER) ([5]; BCRP-MDCK, 10 μM): 5.07 | efflux ratio (ER) ([5]; BCRP-MDCK, 20 μM): 2.49 | BCRP transporter substrate assessment [5]: ABCB1 and BCRP transporter substrates

C=CC(=O)Nc1cc(Nc2nccc(-c3cn(C4CC4)c4ccccc34)n2)c(OC)cc1N(C)CCN(C)C [almonertinib]
ABCB1 transporter substrate assessment [2]: ABCB1 and BCRP transporter substrates | efflux ratio at 1 μM ([2]; human, MDCK-MDR1, ABCB1-MDCK, 1 μM, read-out: efflux ratio (ER)): 5.2 | efflux ratio at 10 μM ([2]; human, MDCK-MDR1, ABCB1-MDCK, 10 μM, read-out: efflux ratio (ER)): 2.75 | efflux ratio at 20 μM ([2]; human, MDCK-MDR1, ABCB1-MDCK, 20 μM, read-out: efflux ratio (ER)): 1.84 | intracranial tumor response ([6]; 110 mg po qd first-line, after 8 weeks): partially responded | abnormalities during treatment ([6]; 110 mg po qd): no other abnormalities | neurological function (sticky dot test, vertical test) ([7]; 25 mg/kg, vs control group): significant improvement in neurological function | growth of intracranial tumors (bioluminescence) [7]: effectively inhibited the growth of intracranial tumors | number of proliferative cells (Ki-67, histological analysis of brain tissue) ([7]; brain metastasis model): significantly decreased | body weight of mice ([7]; brain metastasis model): decreased after administration | overall survival time of mice ([7]; brain metastasis model, 10 and 25 mg/kg, 60 days): longer than that of mice in the osimertinib group | efflux ratio at 1 μM ([8]; 1 μM): 1.1 | efflux ratio at 10 μM ([8]; 10 μM): 1.42 | efflux ratio at 20 μM ([8]; 20 μM): 1.02 | pKd [9]: 4.95 | BCRP transporter substrate assessment [5]: ABCB1 and BCRP transporter substrates | efflux ratio at 1 μM ([5]; human, BCRP-MDCK, 1 μM, read-out: efflux ratio (ER)): 4.62 | efflux ratio at 10 μM ([5]; human, BCRP-MDCK, 10 μM, read-out: efflux ratio (ER)): 2.51 | efflux ratio at 20 μM ([5]; human, BCRP-MDCK, 20 μM, read-out: efflux ratio (ER)): 1.53 | tumor growth / regression ([10]; 5 mg/kg, spinal cord metastatic mice): can inhibit tumor growth but cannot cause tumor regression | biofluorescence signal of intracranial and spinal cord tumors ([10]; high-dose group (25 mg/kg Qd)): significantly reduced | proliferation of tumor cells (H&E and Ki-67 staining of spinal cord) ([10]; high-dose group (25 mg/kg)): significant inhibition in the proliferation of tumor cells | biofluorescence signal of intracranial and spinal cord tumors ([10]; low-dose group (5 mg/kg Qd)): did not change significantly | survival time ([10]; spinal cord metastasis model, vs osimertinib-administered group): longer survival time | detectability in plasma and brain tissue ([11]; 24 h after 25 mg/kg oral): could still be detected | BBB penetration ([11]; PC9-LUC BM xenograft mice, almonertinib 25 mg/kg oral): excellent BBB penetration | tmax ([11]; brain, almonertinib 25 mg/kg oral): 2 h | AUC(0-t) [11, 14]: 30.6 µM·h | Cmax [11, 14]: 5.36 µM | MRT last [11, 14]: 6.19 h | Kp ([11]; female, BALB/c nude, mouse, brain/plasma, po, 25 mg/kg): 1.82 | AUC(0-t) [11, 15]: 16.9 µM·h | Cmax [11, 15]: 6.41 µM | MRT last [11, 15]: 5.42 h | tmax ([11]; female, BALB/c nude, mouse, plasma, po, 25 mg/kg, tmax, almonertinib 25 mg/kg oral): 0.5 h

C#Cc1cccc(Nc2ncnc3cc4c(cc23)OCCOCCOCCO4)c1 [icotinib]
median intracranial progression free survival (PFS) [12]: 8.4 months

C=CC(=O)Nc1cc(Nc2nccc(-c3cn(C)c4ccccc34)n2)c(OC)cc1N(C)CCN(C)C [osimertinib]
growth of intracranial tumors (bioluminescence) [7]: effectively inhibited the growth of intracranial tumors | skin of mice [7, 16]: appeared to be keratinized | weight loss [7, 16]: more obvious | body weight of mice ([7]; brain metastasis model): decreased after administration | grade 1 and 2 diarrhea, patients affected [13]: 41% | grade 1 and 2 rashes, patients affected [13]: 34% | biofluorescence signal of intracranial and spinal cord tumors ([10]; high-dose group (25 mg/kg Qd)): significantly reduced | biofluorescence signal of intracranial and spinal cord tumors ([10]; low-dose group (5 mg/kg Qd)): did not change significantly
